Data: PubChem BioAssay AID2060908 (Molecular Pharmacology Branch, DTP, NCI, 2025)

Tested on: 186277-243-T-J2-PDC complex spheroids, viability
Test: Anticancer human tumor 186277-243-T-J2-PDC patient-derived colon adenocarcinoma cell line growth inhibition [RAS]
Conditions: for IC50: curve of first compound; for viability, T/C: stronger effect = lower value; active means viability on the fitted dose curve at most 10% of control; inactive means the rest
Method in brief: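 Multi-cell-type spheroids: tumor cells plus HUVEC endothelial cells and mesenchymal stem cells. RAS-pathway inhibitors were combined with targeted agents, each dosed in half-log steps down from clinical Cmax, or from 10 microM when Cmax was unknown.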

[1] = second compound 0.000949 µM, first compound 0.0316 µM
[2] = second compound 0.000949 µM, first compound 0.1 µM
[3] = second compound 0.000949 µM, first compound 0.316 µM
[4] = second compound 0.000949 µM, first compound 1 µM
[5] = second compound 0.000949 µM, first compound 3.16 µM
[6] = second compound 0.000949 µM, first compound 10 µM
[7] = second compound 0.003 µM, first compound 0.0316 µM
[8] = second compound 0.003 µM, first compound 0.1 µM
[9] = second compound 0.003 µM, first compound 0.316 µM
[10] = second compound 0.003 µM, first compound 1 µM
[11] = second compound 0.003 µM, first compound 3.16 µM
[12] = second compound 0.003 µM, first compound 10 µM
[13] = second compound 0.00949 µM, first compound 0.0316 µM
[14] = second compound 0.00949 µM, first compound 0.1 µM
[15] = second compound 0.00949 µM, first compound 0.316 µM
[16] = second compound 0.00949 µM, first compound 1 µM
[17] = second compound 0.00949 µM, first compound 3.16 µM
[18] = second compound 0.00949 µM, first compound 10 µM
[19] = second compound 0.03 µM, first compound 0.0316 µM
[20] = second compound 0.03 µM, first compound 0.1 µM
[21] = second compound 0.03 µM, first compound 0.316 µM
[22] = second compound 0.03 µM, first compound 1 µM
[23] = second compound 0.03 µM, first compound 3.16 µM
[24] = second compound 0.03 µM, first compound 10 µM
[25] = second compound 0.0949 µM, first compound 0.0316 µM
[26] = second compound 0.0949 µM, first compound 0.1 µM
[27] = second compound 0.0949 µM, first compound 0.316 µM
[28] = second compound 0.0949 µM, first compound 1 µM
[29] = second compound 0.0949 µM, first compound 3.16 µM
[30] = second compound 0.0949 µM, first compound 10 µM
[31] = second compound 0.3 µM, first compound 0.0316 µM
[32] = second compound 0.3 µM, first compound 0.1 µM
[33] = second compound 0.3 µM, first compound 0.316 µM
[34] = second compound 0.3 µM, first compound 1 µM
[35] = second compound 0.3 µM, first compound 3.16 µM
[36] = second compound 0.3 µM, first compound 10 µM
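Further: spheroids exposed to compounds for 7 days before viability read.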

CC1(O)CCCC1n1c(=O)c(C(F)F)cc2cnc(NC3CCN(S(C)(=O)=O)CC3)nc21 (stereo not given) + CCn1c(-c2cccnc2C(C)OC)c2c3cc(ccc31)N1CCOC(CC(NC(=O)C(C(C)C)N(C)C(=O)C3(F)CCN(C(=O)C#CC(C)(C)N(C)C)CC3)C(=O)N3CCCC(N3)C(=O)OCC(C)(C)C2)C1
4.33 µM: IC50 (second compound 0.000949 µM)
3.59 µM: IC50 (second compound 0.0949 µM)
1.17 µM: IC50 (second compound 0.3 µM)
4.38 µM: IC50 (second compound 0.00949 µM)
4.35 µM: IC50 (second compound 0.03 µM)
4.48 µM: IC50 (second compound 0.003 µM)
active: viability, T/C [6] 1.88% | viability, T/C [12] 2.18% | viability, T/C [18] 2.28% | viability, T/C [24] 1.84% | viability, T/C [30] 1.68%
inactive: viability, T/C [1] 129% | viability, T/C [2] 113% | viability, T/C [3] 122% | viability, T/C [4] 86.7% | viability, T/C [5] 74.8% | viability, T/C [7] 96.5% | viability, T/C [8] 122% | viability, T/C [9] 104% | viability, T/C [10] 93.2% | viability, T/C [11] 71.7% | viability, T/C [13] 116% | viability, T/C [14] 116% | viability, T/C [15] 115% | viability, T/C [16] 84.3% | viability, T/C [17] 75.7% | viability, T/C [19] 111% | viability, T/C [20] 117% | viability, T/C [21] 108% | viability, T/C [22] 80.3% | viability, T/C [23] 77.2% | viability, T/C [25] 108% | viability, T/C [26] 113% | viability, T/C [27] 80.9% | viability, T/C [28] 73.3% | viability, T/C [29] 69% | viability, T/C [31] 114% | viability, T/C [32] 91.7% | viability, T/C [33] 56.2% | viability, T/C [34] 56.8% | viability, T/C [35] 53.8% | viability, T/C [36] 0.94%

CCC(CC)c1cc(NC2CCC(N)C2)n2nccc2n1 (stereo not given) + CCn1c(-c2cccnc2C(C)OC)c2c3cc(ccc31)N1CCOC(CC(NC(=O)C(C(C)C)N(C)C(=O)C3(F)CCN(C(=O)C#CC(C)(C)N(C)C)CC3)C(=O)N3CCCC(N3)C(=O)OCC(C)(C)C2)C1
1.78 µM: IC50 (second compound 0.003 µM)
inactive: viability, T/C [1] 105% | viability, T/C [2] 91.8% | viability, T/C [3] 90.4% | viability, T/C [4] 91.2% | viability, T/C [7] 96% | viability, T/C [8] 86.7% | viability, T/C [9] 98% | viability, T/C [10] 101% | viability, T/C [13] 99.4% | viability, T/C [14] 87.2% | viability, T/C [15] 91.9% | viability, T/C [16] 103% | viability, T/C [17] 12.8% | viability, T/C [19] 107% | viability, T/C [20] 107% | viability, T/C [21] 97.7% | viability, T/C [22] 113% | viability, T/C [25] 111% | viability, T/C [26] 103% | viability, T/C [27] 108% | viability, T/C [28] 77.6% | viability, T/C [31] 102% | viability, T/C [32] 108% | viability, T/C [33] 98.2% | viability, T/C [34] 59.5%
1.88 µM: IC50 (second compound 0.00949 µM)
1.89 µM: IC50 (second compound 0.03 µM)
1.73 µM: IC50 (second compound 0.000949 µM)
1.54 µM: IC50 (second compound 0.0949 µM)
active: viability, T/C [5] 4.89% | viability, T/C [6] 0.44% | viability, T/C [11] 4.58% | viability, T/C [12] 0.37% | viability, T/C [18] 0.38% | viability, T/C [23] 4.88% | viability, T/C [24] 0.35% | viability, T/C [29] 4.31% | viability, T/C [30] 0.37% | viability, T/C [35] 3.42% | viability, T/C [36] 0.42%
1.21 µM: IC50 (second compound 0.3 µM)

CCN1CCN(Cc2ccc(Nc3ncc(F)c(-c4cc(F)c5nc(C)n(C(C)C)c5c4)n3)nc2)CC1 + CCn1c(-c2cccnc2C(C)OC)c2c3cc(ccc31)N1CCOC(CC(NC(=O)C(C(C)C)N(C)C(=O)C3(F)CCN(C(=O)C#CC(C)(C)N(C)C)CC3)C(=O)N3CCCC(N3)C(=O)OCC(C)(C)C2)C1
> 1 µM: IC50 (second compound 0.000949 µM) | IC50 (second compound 0.003 µM) | IC50 (second compound 0.00949 µM) | IC50 (second compound 0.03 µM) | IC50 (second compound 0.0949 µM) | IC50 (second compound 0.3 µM)
inactive: viability, T/C (second compound 0.000949 µM, first compound 0.00316 µM) 123% | viability, T/C (second compound 0.000949 µM, first compound 0.01 µM) 105% | viability, T/C [1] 135% | viability, T/C [2] 140% | viability, T/C [3] 184% | viability, T/C [4] 126% | viability, T/C (second compound 0.003 µM, first compound 0.00316 µM) 109% | viability, T/C (second compound 0.003 µM, first compound 0.01 µM) 95.8% | viability, T/C [7] 135% | viability, T/C [8] 160% | viability, T/C [9] 168% | viability, T/C [10] 128% | viability, T/C (second compound 0.00949 µM, first compound 0.00316 µM) 85.8% | viability, T/C (second compound 0.00949 µM, first compound 0.01 µM) 116% | viability, T/C [13] 97.7% | viability, T/C [14] 162% | viability, T/C [15] 180% | viability, T/C [16] 132% | viability, T/C (second compound 0.03 µM, first compound 0.00316 µM) 102% | viability, T/C (second compound 0.03 µM, first compound 0.01 µM) 136% | viability, T/C [19] 135% | viability, T/C [20] 155% | viability, T/C [21] 171% | viability, T/C [22] 110% | viability, T/C (second compound 0.0949 µM, first compound 0.00316 µM) 118% | viability, T/C (second compound 0.0949 µM, first compound 0.01 µM) 134% | viability, T/C [25] 122% | viability, T/C [26] 142% | viability, T/C [27] 142% | viability, T/C [28] 90.7% | viability, T/C (second compound 0.3 µM, first compound 0.00316 µM) 134% | viability, T/C (second compound 0.3 µM, first compound 0.01 µM) 113% | viability, T/C [31] 123% | viability, T/C [32] 116% | viability, T/C [33] 104% | viability, T/C [34] 58.6%

Cc1nc(N2CCC3(CC2)COC(C)C3N)c(CO)nc1Sc1ccnc(N)c1Cl (stereo not given) + CCn1c(-c2cccnc2C(C)OC)c2c3cc(ccc31)N1CCOC(CC(NC(=O)C(C(C)C)N(C)C(=O)C3(F)CCN(C(=O)C#CC(C)(C)N(C)C)CC3)C(=O)N3CCCC(N3)C(=O)OCC(C)(C)C2)C1
> 10 µM: IC50 (second compound 0.000949 µM) | IC50 (second compound 0.003 µM) | IC50 (second compound 0.00949 µM) | IC50 (second compound 0.03 µM) | IC50 (second compound 0.0949 µM) | IC50 (second compound 0.3 µM)
inactive: viability, T/C [1] 88.9% | viability, T/C [2] 85.4% | viability, T/C [3] 111% | viability, T/C [4] 104% | viability, T/C [5] 141% | viability, T/C [6] 131% | viability, T/C [7] 91.8% | viability, T/C [8] 100% | viability, T/C [9] 98.2% | viability, T/C [10] 114% | viability, T/C [11] 133% | viability, T/C [12] 130% | viability, T/C [13] 99.9% | viability, T/C [14] 130% | viability, T/C [15] 105% | viability, T/C [16] 113% | viability, T/C [17] 132% | viability, T/C [18] 128% | viability, T/C [19] 92.3% | viability, T/C [20] 110% | viability, T/C [21] 108% | viability, T/C [22] 126% | viability, T/C [23] 137% | viability, T/C [24] 116% | viability, T/C [25] 98.2% | viability, T/C [26] 123% | viability, T/C [27] 117% | viability, T/C [28] 127% | viability, T/C [29] 137% | viability, T/C [30] 101% | viability, T/C [31] 122% | viability, T/C [32] 114% | viability, T/C [33] 107% | viability, T/C [34] 92.9% | viability, T/C [35] 92.1% | viability, T/C [36] 62.8%

NC1c2ccccc2OC12CCN(c1cnc3c(N4CCCc5ncccc54)n[nH]c3n1)CC2 (stereo not given) + CCn1c(-c2cccnc2C(C)OC)c2c3cc(ccc31)N1CCOC(CC(NC(=O)C(C(C)C)N(C)C(=O)C3(F)CCN(C(=O)C#CC(C)(C)N(C)C)CC3)C(=O)N3CCCC(N3)C(=O)OCC(C)(C)C2)C1
inactive: viability, T/C [1] 84.6% | viability, T/C [2] 102% | viability, T/C [3] 114% | viability, T/C [4] 122% | viability, T/C [5] 109% | viability, T/C [6] 70.3% | viability, T/C [7] 108% | viability, T/C [8] 96.5% | viability, T/C [9] 119% | viability, T/C [10] 119% | viability, T/C [11] 104% | viability, T/C [12] 74.6% | viability, T/C [13] 100% | viability, T/C [14] 110% | viability, T/C [15] 121% | viability, T/C [16] 119% | viability, T/C [17] 104% | viability, T/C [18] 66.9% | viability, T/C [19] 111% | viability, T/C [20] 89% | viability, T/C [21] 117% | viability, T/C [22] 114% | viability, T/C [23] 105% | viability, T/C [24] 76% | viability, T/C [25] 102% | viability, T/C [26] 94.1% | viability, T/C [27] 112% | viability, T/C [28] 91.2% | viability, T/C [29] 83.4% | viability, T/C [30] 60.8% | viability, T/C [31] 94.5% | viability, T/C [32] 88.5% | viability, T/C [33] 75.5% | viability, T/C [34] 65.9% | viability, T/C [35] 54.6% | viability, T/C [36] 38.3%
4.09 µM: IC50 (second compound 0.3 µM)
> 10 µM: IC50 (second compound 0.000949 µM) | IC50 (second compound 0.003 µM) | IC50 (second compound 0.00949 µM) | IC50 (second compound 0.03 µM) | IC50 (second compound 0.0949 µM)
